Assays:
Test in all cases: biochemical
Format in all cases: biochemical
panel of 391 kinases [1] = target: panel of 391 kinases (Homo sapiens, UniProt O96013); settings: PAK4, MK-28 1 µM, ATP 1 µM
panel of 391 kinases [2] = target: panel of 391 kinases (Homo sapiens, UniProt Q9H2K8); settings: TAOK3/JIK, MK-28 1 µM, ATP 1 µM
panel of 391 kinases [3] = target: panel of 391 kinases (Homo sapiens, UniProt O95819); settings: HGK/MAP4K4, MK-28 1 µM, ATP 1 µM
panel of 391 kinases [4] = target: panel of 391 kinases (Homo sapiens, UniProt P68400); settings: CK2a, MK-28 1 µM, ATP 1 µM
panel of 391 kinases [5] = target: panel of 391 kinases (Homo sapiens, UniProt P42345); settings: kinase mTOR/FRAP1, compound at 1 µM, single dose in duplicates, 1 µM ATP
panel of 391 kinases [6] = target: panel of 391 kinases (Homo sapiens, UniProt P16234); settings: PDGFRa, MK-28 1 µM, ATP 1 µM
panel of 391 kinases [7] = target: panel of 391 kinases (Homo sapiens, UniProt Q92630); settings: DYRK2, MK-28 1 µM, ATP 1 µM
panel of 391 kinases [8] = target: panel of 391 kinases (Homo sapiens, UniProt P51617); settings: IRAK1, MK-28 1 µM, ATP 1 µM
panel of 391 kinases [9] = target: panel of 391 kinases (Homo sapiens, UniProt Q13557); settings: CAMK2d, MK-28 1 µM, ATP 1 µM
panel of 391 kinases [10] = target: panel of 391 kinases (Homo sapiens, UniProt Q00536); settings: CDK16/cyclin Y (PCTAIRE), MK-28 1 µM, ATP 1 µM
panel of 391 kinases [11] = target: panel of 391 kinases (Homo sapiens, UniProt Q16512); settings: PKN1/PRK1, MK-28 1 µM, ATP 1 µM
panel of 391 kinases [12] = target: panel of 391 kinases (Homo sapiens, UniProt Q15303); settings: ERBB4/HER4, MK-28 1 µM, ATP 1 µM
panel of 391 kinases [13] = target: panel of 391 kinases (Homo sapiens, UniProt O43353); settings: RIPK2, MK-28 1 µM, ATP 1 µM
panel of 391 kinases [14] = target: panel of 391 kinases (Homo sapiens, UniProt P17948); settings: FLT1/VEGFR1, MK-28 1 µM, ATP 1 µM
panel of 391 kinases [15] = target: panel of 391 kinases (Homo sapiens, UniProt Q9UBE8); settings: NLK, MK-28 1 µM, ATP 1 µM
panel of 391 kinases [16] = target: panel of 391 kinases (Homo sapiens, UniProt P36507); settings: MEK2, MK-28 1 µM, ATP 1 µM
panel of 391 kinases [17] = target: panel of 391 kinases (Homo sapiens, UniProt Q02156); settings: PKCepsilon, MK-28 1 µM, ATP 1 µM
panel of 391 kinases [18] = target: panel of 391 kinases (Homo sapiens, UniProt P42679); settings: CTK/MATK, MK-28 1 µM, ATP 1 µM
panel of 391 kinases [19] = target: panel of 391 kinases (Homo sapiens, UniProt P21802); settings: FGFR2, MK-28 1 µM, ATP 1 µM
panel of 391 kinases [20] = target: panel of 391 kinases (Homo sapiens, UniProt Q96PN8); settings: TSSK3/STK22C, MK-28 1 µM, ATP 1 µM
panel of 391 kinases [21] = target: panel of 391 kinases (Homo sapiens, UniProt Q9UPZ9); settings: LCK2/ICK, MK-28 1 µM, ATP 1 µM
panel of 391 kinases [22] = target: panel of 391 kinases (Homo sapiens, UniProt Q8TD19); settings: NEK9, MK-28 1 µM, ATP 1 µM
panel of 391 kinases [23] = target: panel of 391 kinases (Homo sapiens, UniProt Q16644); settings: MAPKAPK3, MK-28 1 µM, ATP 1 µM
panel of 391 kinases [24] = target: panel of 391 kinases (Homo sapiens, UniProt Q86YV6); settings: MYLK4, MK-28 1 µM, ATP 1 µM
panel of 391 kinases [25] = target: panel of 391 kinases (Homo sapiens, UniProt P34947); settings: GRK5, MK-28 1 µM, ATP 1 µM
panel of 391 kinases [26] = target: panel of 391 kinases (Homo sapiens, UniProt Q8TDX7); settings: NEK7, MK-28 1 µM, ATP 1 µM
[27] = read-out: % Enzyme Activity (relative to DMSO controls)

CN(/N=C\c1ccc(O)c(O)c1)c1nc(-c2ccccc2)cc(-c2ccccc2)n1 [MK-28]
% Enzyme Activity (relative to DMSO controls) (panel of 391 kinases [1]): 97.48% | remaining activity at 1 µM (panel of 391 kinases [1]; [27]): 97.6% | % Enzyme Activity (relative to DMSO controls) (panel of 391 kinases [2]): 100.19% | remaining activity at 1 µM (panel of 391 kinases [2]; [27]): 103% | % Enzyme Activity (relative to DMSO controls) (panel of 391 kinases [3]): 95.38% | remaining activity at 1 µM (panel of 391 kinases [3]; [27]): 102% | % Enzyme Activity (relative to DMSO controls) (panel of 391 kinases [4]): 76.99% | remaining activity at 1 µM (panel of 391 kinases [4]; [27]): 81.1% | % Enzyme Activity (relative to DMSO controls) (panel of 391 kinases [5]): 93.79% | remaining activity at 1 µM (panel of 391 kinases [5]; [27]): 94.4% | % Enzyme Activity (relative to DMSO controls) (panel of 391 kinases [6]): 97.43% | remaining activity at 1 µM (panel of 391 kinases [6]; [27]): 97.7% | % Enzyme Activity (relative to DMSO controls) (panel of 391 kinases [7]): 100.55% | remaining activity at 1 µM (panel of 391 kinases [7]; [27]): 101% | % Enzyme Activity (relative to DMSO controls) (panel of 391 kinases [8]): 84.75% | remaining activity at 1 µM (panel of 391 kinases [8]; [27]): 88.3% | % Enzyme Activity (relative to DMSO controls) (panel of 391 kinases [9]): 94.06% | remaining activity at 1 µM (panel of 391 kinases [9]; [27]): 94.2% | % Enzyme Activity (relative to DMSO controls) (panel of 391 kinases [10]): 113.27% | remaining activity at 1 µM (panel of 391 kinases [10]; [27]): 119% | % Enzyme Activity (relative to DMSO controls) (panel of 391 kinases [11]): 112.74% | remaining activity at 1 µM (panel of 391 kinases [11]; [27]): 113% | % Enzyme Activity (relative to DMSO controls) (panel of 391 kinases [12]): 97.84% | remaining activity at 1 µM (panel of 391 kinases [12]; [27]): 99.3% | % Enzyme Activity (relative to DMSO controls) (panel of 391 kinases [13]): 100.79% | remaining activity at 1 µM (panel of 391 kinases [13]; [27]): 102% | % Enzyme Activity (relative to DMSO controls) (panel of 391 kinases [14]): 84.43% | remaining activity at 1 µM (panel of 391 kinases [14]; [27]): 84.8% | % Enzyme Activity (relative to DMSO controls) (panel of 391 kinases [15]): 99.19% | remaining activity at 1 µM (panel of 391 kinases [15]; [27]): 105% | % Enzyme Activity (relative to DMSO controls) (panel of 391 kinases [16]): 98.80% | remaining activity at 1 µM (panel of 391 kinases [16]; [27]): 99.9% | % Enzyme Activity (relative to DMSO controls) (panel of 391 kinases [17]): 100.42% | remaining activity at 1 µM (panel of 391 kinases [17]; [27]): 102% | % Enzyme Activity (relative to DMSO controls) (panel of 391 kinases [18]): 98.98% | remaining activity at 1 µM (panel of 391 kinases [18]; [27]): 101% | % Enzyme Activity (relative to DMSO controls) (panel of 391 kinases [19]): 102.46% | remaining activity at 1 µM (panel of 391 kinases [19]; [27]): 103% | % Enzyme Activity (relative to DMSO controls) (panel of 391 kinases [20]): 86.26% | remaining activity at 1 µM (panel of 391 kinases [20]; [27]): 88% | % Enzyme Activity (relative to DMSO controls) (panel of 391 kinases [21]): 99.01% | remaining activity at 1 µM (panel of 391 kinases [21]; [27]): 99.2% | % Enzyme Activity (relative to DMSO controls) (panel of 391 kinases [22]): 96.03% | remaining activity at 1 µM (panel of 391 kinases [22]; [27]): 101% | % Enzyme Activity (relative to DMSO controls) (panel of 391 kinases [23]): 71.56% | remaining activity at 1 µM (panel of 391 kinases [23]; [27]): 74.1% | % Enzyme Activity (relative to DMSO controls) (panel of 391 kinases [24]): 92.82% | remaining activity at 1 µM (panel of 391 kinases [24]; [27]): 97.6% | % Enzyme Activity (relative to DMSO controls) (panel of 391 kinases [25]): 103.49% | remaining activity at 1 µM (panel of 391 kinases [25]; [27]): 104% | % Enzyme Activity (relative to DMSO controls) (panel of 391 kinases [26]): 97.32% | remaining activity at 1 µM (panel of 391 kinases [26]; [27]): 98.3%
